Laboratory results published in patent publication US20070167492A1, “Molluscicidal agents” (priority 2003, published 2007).

Experiments:
Type in all cases: in vivo
[1] = system: Winter wheat (Kampa race) seeds; assay: Seed germination test of treated winter wheat seeds (rolled in paper); settings: 3x50 seeds, 6 days at 22° C.
Outline: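 Seeds were disinfected with fludioxonil-containing Beret Gold (2 ml per kg seed) and coated with Sepiret® for formulations unsuitable for coating. Germination of 3×50 seeds rolled in paper was scored after 6 days at continuous 22° C. under a 16 hours light regime.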

[2] = system: Deroceras reticulatum (grey field slug); assay: Example 1: pot test, treated winter wheat seed with 5 adult slugs per pot, 14 days
Outline: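 Fludioxonil-disinfected winter wheat seed (Kampa, 40 per pot) sown on quartz sand over potting soil with 5 adult slugs per pot; ±15° C., ±90% RH, 12 h light/12 h dark, 4 replicates. Damaged seeds, plants, dead slugs and fecal pellets counted up to day 14; F-tests and Student-tests.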

[3] = system: Deroceras reticulatum (grey field slug); assay: Example 2: pot re-test, treated winter wheat seed with 5 adult slugs per pot, 7 days
Excerpt: Based on the results of the experiment described in Example 1, a selection was made from the various test numbers of that experiment for re-testing, partly to confirm the conclusions of that experiment and to test the unexpected outcome of some test compounds.
The selection of test numbers (Test No.) used in the present experiment relative to those of the experiment described in Example 1 is shown in Table 7.
The same seeds as described in Example 1 were sown in earthenware pots with an internal diameter of 20 cm and a height of 18 cm, filled with 7 cm of potting soil (Trio BV, Weesp, The Netherlands) and with a top 2 cm of white quartz sand. A total of 40 winter wheat seeds was placed in each pot, in a pattern of concentric circles on top of the quartz sand, the germ of the seed facing upwards. To each pot a total of 5 adult specimens of the test slug Deroceras reticulatum (grey field slug) were added. The pots were incubated at 18-19° C. with a relative humidity of ±95% and light regime of ±18 hours light/6 hours dark, without artificial lighting. The pots were not irrigated overhead. In total, 4 parallel tests were performed for each test.
The number of damaged seeds was, the number of plants present (germinated and not eaten or damaged by the slugs), the number of dead slugs and of the number of fecal pellets were determined after 2, 3 and 7 days following the addition of the slugs.
The data were statistically analysed by using F-tests (α=0.05) and pair-wise Student-tests.

[4] = 2 ml formulated per kg seed, 2 days after sowing
[5] = 2 ml formulated per kg seed, 3 days after sowing
[6] = 2 ml formulated per kg seed, 7 days after sowing
[7] = 2 ml formulated per kg seed, 10 days after sowing
[8] = 2 ml formulated per kg seed, 14 days after sowing
[9] = 4 ml formulated per kg seed, 2 days after sowing
[10] = 4 ml formulated per kg seed, 3 days after sowing
[11] = 4 ml formulated per kg seed, 7 days after sowing
[12] = 4 ml formulated per kg seed, 10 days after sowing
[13] = 4 ml formulated per kg seed, 14 days after sowing
[14] = 8 ml formulated per kg seed, 2 days after sowing
[15] = 8 ml formulated per kg seed, 3 days after sowing
[16] = 8 ml formulated per kg seed, 7 days after sowing
[17] = 8 ml formulated per kg seed, 10 days after sowing
[18] = 8 ml formulated per kg seed, 14 days after sowing
[19] = Example 2, 2 ml formulated per kg seed, 2 days after sowing
[20] = Example 2, 2 ml formulated per kg seed, 3 days after sowing
[21] = Example 2, 2 ml formulated per kg seed, 7 days after sowing
[22] = Example 2, 4 ml formulated per kg seed, 2 days after sowing
[23] = Example 2, 4 ml formulated per kg seed, 3 days after sowing
[24] = Example 2, 4 ml formulated per kg seed, 7 days after sowing
[25] = Example 2, after 2, 3 and 7 days

CNC(=O)Oc1cc(C)c(SC)c(C)c1 [methiocarb, 4-methylthio-3,5-xylyl methylcarbamate]
Percentage germinated ([1]; 2 ml formulated per kg seed): 61%
Percentage germinated ([1]; 4 ml formulated per kg seed): 63%
Percentage germinated ([1]; 8 ml formulated per kg seed): 27%
number of utilizable plants after 14 days ([2]; 2 ml formulated per kg seed): 15.5
percentage of damaged seeds after 14 days ([2]; 2 ml formulated per kg seed): 44%
Mean number of damaged seeds per pot [2, 4]: 2.0
Mean number of dead slugs per pot [2, 4]: 0.3
Mean number fecal pellets per pot [2, 5]: 18
Mean number of damaged seeds per pot [2, 5]: 5.3
Mean number of dead slugs per pot [2, 5]: 0.3
Mean number of plants present per pot [2, 5]: 10.5
Mean number fecal pellets per pot [2, 6]: 43
Mean number of damaged seeds per pot [2, 6]: 19.3
Mean number of dead slugs per pot [2, 6]: 0.3
Mean number of plants present per pot [2, 6]: 16.5
Mean number fecal pellets per pot [2, 7]: 47
Mean number of damaged seeds per pot [2, 7]: 17.0
Mean number of dead slugs per pot [2, 7]: 0.3
Mean number of plants present per pot [2, 7]: 19.8
Mean number fecal pellets per pot [2, 8]: 50
Mean number of damaged seeds per pot [2, 8]: 17.8
Mean number of dead slugs per pot [2, 8]: 0.5
Mean number of plants present per pot [2, 8]: 21.3
number of utilizable plants after 14 days ([2]; 4 ml formulated per kg seed): 19.8
percentage of damaged seeds after 14 days ([2]; 4 ml formulated per kg seed): 13%
Mean number of damaged seeds per pot [2, 9]: 1.3
Mean number of dead slugs per pot [2, 9]: 0
Mean number fecal pellets per pot [2, 10]: 16
Mean number of damaged seeds per pot [2, 10]: 3.3
Mean number of dead slugs per pot [2, 10]: 0
Mean number of plants present per pot [2, 10]: 7.8
Mean number fecal pellets per pot [2, 11]: 34
Mean number of damaged seeds per pot [2, 11]: 10.8
Mean number of dead slugs per pot [2, 11]: 0.3
Mean number of plants present per pot [2, 11]: 22.8
Mean number fecal pellets per pot [2, 12]: 35
Mean number of damaged seeds per pot [2, 12]: 4.8
Mean number of dead slugs per pot [2, 12]: 0.3
Mean number of plants present per pot [2, 12]: 30.3
Mean number fecal pellets per pot [2, 13]: 36
Mean number of damaged seeds per pot [2, 13]: 5.0
Mean number of dead slugs per pot [2, 13]: 1.8
Mean number of plants present per pot [2, 13]: 29.8
number of utilizable plants after 14 days ([2]; 8 ml formulated per kg seed): 33.0
percentage of damaged seeds after 14 days ([2]; 8 ml formulated per kg seed): 8%
Mean number of damaged seeds per pot [2, 14]: 1.8
Mean number of dead slugs per pot [2, 14]: 0
Mean number fecal pellets per pot [2, 15]: 6
Mean number of damaged seeds per pot [2, 15]: 2.5
Mean number of dead slugs per pot [2, 15]: 0.3
Mean number of plants present per pot [2, 15]: 4.3
Mean number fecal pellets per pot [2, 16]: 23
Mean number of damaged seeds per pot [2, 16]: 4.5
Mean number of dead slugs per pot [2, 16]: 0.5
Mean number of plants present per pot [2, 16]: 32.0
Mean number fecal pellets per pot [2, 17]: 27
Mean number of damaged seeds per pot [2, 17]: 3.3
Mean number of dead slugs per pot [2, 17]: 1.3
Mean number of plants present per pot [2, 17]: 33.8
Mean number fecal pellets per pot [2, 18]: 27
Mean number of damaged seeds per pot [2, 18]: 3.3
Mean number of dead slugs per pot [2, 18]: 1.5
Mean number of plants present per pot [2, 18]: 34.8
effect on the slug population ([2]; Example 1): little effect on the slug population
damaged seeds relative to the untreated pots ([2]; Example 1, 2, 4 and 8 ml per kg of seed, from day 3 after sowing): significantly less damaged seeds
plants present relative to the untreated pots ([2]; Example 1, 2, 4 or 8 ml per kg of seed, after 3 (only 2 ml), 7, 10 and 14 days): significantly more plants present
fecal pellets relative to the untreated seed ([2]; Example 1, at each dosage and at each observation): significantly less fecal pellets
protection / slug controlling effect (conclusion) ([2]; Example 1, winter wheat seed treatment, dosages tested): good protection to both seeds and plants
dead slugs observed during the course of the experiment ([3]; Example 2): More dead slugs
result of seed treatment against slugs (conclusion) ([3]; Example 2): fairly food protection of the seeds against slugs
percentage of damaged seeds after 7 days ([3]; Example 2, 2 ml formulated per kg seed): 14%
Mean number of damaged seeds per pot [3, 19]: 2.5
Mean number of dead slugs per pot [3, 19]: 0.3
Mean number of damaged seeds per pot [3, 20]: 4.8
Mean number of dead slugs per pot [3, 20]: 0.5
Mean number of damaged seeds per pot [3, 21]: 5.5
Mean number of dead slugs per pot [3, 21]: 2.3
percentage of damaged seeds after 7 days ([3]; Example 2, 4 ml formulated per kg seed): 9%
Mean number of damaged seeds per pot [3, 22]: 1.8
Mean number of dead slugs per pot [3, 22]: 0
Mean number of damaged seeds per pot [3, 23]: 2.0
Mean number of dead slugs per pot [3, 23]: 1.8
Mean number of damaged seeds per pot [3, 24]: 3.5
Mean number of dead slugs per pot [3, 24]: 3.3
number of fecal pellets per pot relative to the untreated control [3, 25]: significant reduction in the number of fecal pellets
plants present relative to the untreated seed [3, 25]: significantly more plants present
number of damaged seeds relative to the untreated seed ([3]; Example 2, two days after the start): significant reduction in the number of damaged seeds
Mean number of fecal pellets per pot ([3]; dosage 2 ml, 2 days): 1
Mean number of plants present per pot ([3]; dosage 2 ml, 2 days): 9.0
Mean number of fecal pellets per pot ([3]; dosage 2 ml, 3 days): 9
Mean number of plants present per pot ([3]; dosage 2 ml, 3 days): 22.5
Mean number of fecal pellets per pot ([3]; dosage 2 ml, 7 days): 20
Mean number of plants present per pot ([3]; dosage 2 ml, 7 days): 34.0
number of utilizable plants after 7 days ([3]; dosage 2 ml, 7 days): 26.8
Mean number of fecal pellets per pot ([3]; dosage 4 ml, 2 days): 2
Mean number of plants present per pot ([3]; dosage 4 ml, 2 days): 28.3
Mean number of fecal pellets per pot ([3]; dosage 4 ml, 3 days): 7
Mean number of plants present per pot ([3]; dosage 4 ml, 3 days): 33.3
Mean number of fecal pellets per pot ([3]; dosage 4 ml, 7 days): 11
Mean number of plants present per pot ([3]; dosage 4 ml, 7 days): 34.5
number of utilizable plants after 7 days ([3]; dosage 4 ml, 7 days): 32.5
